The record followed here is patent EP2196465A1, “(3-oxo)pyridazin-4-ylurea derivatives as PDE4 inhibitors” (Almirall, S.A., priority 2008, dated 2010).

In general, IC50 refers to the concentration that gives 50% inhibition.

The assay concerns the target recombinant PDE4 enzyme. Description: PDE4 [3H] cAMP Scintillation Proximity Assay (SPA). The format is biochemical. Particulars: inhibition of PDE4; 30 nM [3H] cAMP, 1 hr at room temperature, yeast extract of recombinant PDE4 enzyme. How it is done:
Measurement of Phosphodiesterase Activity was done using a [3H] cAMP Scintillation Proximity Assay (SPA) (GE Healthcare). Compounds to be tested were disolved in DMSO at a stock concentration of 1mM and serial dilutions were prepared in 50% DMSO to determine IC50s.
The reactions were conducted in 96-well plates (Corning, Ref.3604) at room temperature, in 0.1 ml of reaction buffer containing (final concentrations): 50 mM Tris-HCl, pH 7.5, 8.3 mM MgCl2, 1.7 mM EGTA, 30 nM [3H] cAMP (approximately 150000 dpm/well) with or without the inhibitors. The reaction was initiated by adding yeast extract of recombinant PDE4 enzyme.
Plates were shaken for 1 hr at room temperature and the incubation was terminated by adding 50 µl (0.5 mg /well) of SPA yttrium silicate beads (RPNQ 0150; GE Healthcare) in the presence of zinc sulfate. Plates were stored overnight in the dark and read on a TRILUX microtiter plate reader (Perkin Elmer).
For orientation: SPA uses beads or plates that emit light when radiolabelled molecules are held near them.
Consider `CCn1nc(-c2cccc(-c3cccc(CC(=O)NC4CC4)c3)c2)cc(NC(=O)Nc2c(Cl)cncc2Cl)c1=O` [Example 127, N-cyclopropyl-2-{3'-[5-({[(3,5-dichloropyridin-4-yl)amino]carbonyl}amino)-1-ethyl-6-oxo-1,6-dihydropyridazin-3-yl]biphenyl-3-yl}acetamide], for which the concentration for half-maximal inhibition (IC50) came to 0.173 nM.
`CCn1nc(-c2cccc(-c3cccc(CC(=O)NCCN4CCOCC4)c3)c2)cc(NC(=O)Nc2c(Cl)cncc2Cl)c1=O` [Example 119, 2-(3'-(5-(3-(3,5-dichloropyridin-4-yl)ureido)-1-ethyl-6-oxo-1,6-dihydropyridazin-3-yl)biphenyl-3-yl)-N-(2-morpholinoethyl)acetamide]: the IC50 turned out to be 0.061 nM.
Turning to `CCn1nc(-c2cccc(-c3cc(O)cc(C(=O)NCCCCCCCN(C)CCO)c3)c2)cc(NC(=O)Nc2c(Cl)cncc2Cl)c1=O` [Example 124, 3'-(5-(3-(3,5-dichloropyridin-4-yl)ureido)-1-ethyl-6-oxo-1,6-dihydropyridazin-3-yl)-5-hydroxy-N-(7-((2-hydroxyethyl)(methyl)amino)heptyl)biphenyl-3-carboxamide], the IC50 was found to be 0.037 nM.
Take `CCn1nc(-c2cccc(-c3cccc(C(=O)NCCN4CCCCC4)c3)c2)cc(NC(=O)Nc2c(Cl)cncc2Cl)c1=O` [Example 51, 3'-[5-({[(3,5-Dichloropyridin-4-yl)amino]carbonyl}amino)-1-ethyl-6-oxo-1,6-dihydropyridazin-3-yl]-N-(2-piperidin-1-ylethyl)biphenyl-3-carboxamide]: the IC50 came out at 0.104 nM.
The figure for `CCn1nc(-c2cccc(-c3cccc(C(=O)NCCCN(C)C)c3)c2)cc(NC(=O)Nc2c(Cl)cncc2Cl)c1=O` [Example 22, 3'-[5-({[(3,5-Dichloropyridin-4-yl)amino]carbonyl}amino)-1-ethyl-6-oxo-1,6-dihydropyridazin-3-yl]-N-[3-(dimethylamino)propyl]biphenyl-3-carboxamide] is 0.133 nM.
Consider `CCn1nc(-c2cccc(-c3cccc(C(=O)NC4CC4)c3)c2)cc(NC(=O)Nc2c(Cl)cncc2Cl)c1=O` [Example 21, N-Cyclopropyl-3'-[5-({[(3,5-dichloropyridin-4-yl)amino]carbonyl}amino)-1-ethyl-6-oxo-1,6-dihydropyridazin-3-yl]biphenyl-3-carboxamide], for which the IC50 was 0.127 nM.
For the compound `CCn1nc(-c2cccc(-c3cccc(C(=O)NCCCCCCCN(C)CCO)c3)c2)cc(NC(=O)Nc2c(Cl)cncc2Cl)c1=O` [Example 120, 3'-(5-(3-(3,5-dichloropyridin-4-yl)ureido)-1-ethyl-6-oxo-1,6-dihydropyridazin-3-yl)-N-(7-((2-hydroxyethyl)(methyl)amino)heptyl)biphenyl-3-carboxamide], the half-inhibitory concentration (IC50) stood at 0.031 nM.
For the compound `CCn1nc(-c2cccc(-c3cccc(C(=O)NCc4ccc(O)cc4)c3)c2)cc(NC(=O)Nc2c(Cl)cncc2Cl)c1=O` [Example 138, 3'-[5-({[(3,5-dichloropyridin-4-yl)amino]carbonyl}amino)-1-ethyl-6-oxo-1,6-dihydropyridazin-3-yl]-N-(4-hydroxybenzyl)biphenyl-3-carboxamide], the IC50 is 0.391 nM.
As for `CCn1nc(-c2cccc(-c3cc(F)ccc3O)c2)cc(NC(=O)Nc2c(Cl)cncc2Cl)c1=O` [Example 4, N-(3,5-Dichloropyridin-4-yl)-N'-[2-ethyl-6-(5'-fluoro-2'-hydroxybiphenyl-3-yl)-3-oxo-2,3-dihydropyridazin-4-yl]urea], the figure is 0.237 nM.
Take `CCn1nc(-c2cccc(-c3ccc(CC(=O)NCCCCCCCN(C)CCO)cc3)c2)cc(NC(=O)Nc2c(Cl)cncc2Cl)c1=O` [Example 122, 2-(3'-(5-(3-(3,5-dichloropyridin-4-yl)ureido)-1-ethyl-6-oxo-1,6-dihydropyridazin-3-yl)biphenyl-4-yl)-N-(7-((2-hydroxyethyl)(methyl)amino)heptyl)acetamide]: the IC50 came to 0.056 nM.
With `CCn1nc(-c2cccc(-c3ccc(CC(=O)NCCN4CCCCC4)cc3)c2)cc(NC(=O)Nc2c(Cl)cncc2Cl)c1=O` [Example 117, 2-(3'-(5-(3-(3,5-dichloropyridin-4-yl)ureido)-1-ethyl-6-oxo-1,6-dihydropyridazin-3-yl)biphenyl-4-yl)-N-(2-(piperidin-1-yl)ethyl)acetamide], the IC50 was found to be 0.049 nM.
Consider `CCn1nc(-c2cccc(-c3cccc(CC(=O)NCCN4CCCCC4)c3)c2)cc(NC(=O)Nc2c(Cl)cncc2Cl)c1=O` [Example 118, 2-(3'-(5-(3-(3,5-dichloropyridin-4-yl)ureido)-1-ethyl-6-oxo-1,6-dihydropyridazin-3-yl)biphenyl-3-yl)-N-(2-(piperidin-1-yl)ethyl)acetamide], for which the IC50 amounted to 0.1 nM.
On to `CCn1nc(-c2cccc(-c3ccc(C(=O)O)cc3)c2)cc(NC(=O)Nc2c(Cl)cncc2Cl)c1=O` [Example 26, 3'-[5-({[(3,5-Dichloropyridin-4-yl)amino]carbonyl}amino)-1-ethyl-6-oxo-1,6-dihydropyridazin-3-yl]biphenyl-4-carboxylic acid], for which the IC50 amounted to 0.098 nM.
For `CCn1nc(-c2cccc(-c3cccc(C(=O)NCCN(C)C)c3)c2)cc(NC(=O)Nc2c(Cl)cncc2Cl)c1=O` [Example 17, 3'-[5-({[(3,5-Dichloropyridin-4-yl)amino]carbonyl}amino)-1-ethyl-6-oxo-1,6-dihydropyridazin-3-yl]-N-[2-(dimethylamino)ethyl]biphenyl-3-carboxamide], the 50% inhibitory concentration (IC50) amounted to 0.047 nM.
On to `CCn1nc(-c2cccc(-c3cc(O)cc(C(=O)NC4CC4)c3)c2)cc(NC(=O)Nc2c(Cl)cncc2Cl)c1=O` [Example 126, N-cyclopropyl-3'-[5-({[(3,5-dichloropyridin-4-yl)amino]carbonyl}amino)-1-ethyl-6-oxo-1,6-dihydropyridazin-3-yl]-5-hydroxybiphenyl-3-carboxamide], for which the IC50 is 0.076 nM.
